Where “and” joins values, the source holds several entries; their conditions need not be identical. Equal values may be shown once. Read-outs that look alike come from different tables or passages of the source. Values belong to the molecule of their own block, whether it stands above or below them. Where no end group is shown, it is not given here.
Key:
hDRR7 receptor = molecular target: T1, hDRR7 receptor (Homo sapiens, UniProt Q96LB1); assay: FLIPR calcium assay, HEK293 cells transiently co-transfected with hDRR7 and Gα16; format: cell-based; conditions: for EC50: MrgX2 taken as hDRR7, FLIPR Ca2+ transients (FIG. 10), read-out: MrgX2 (pEC50) (converted)
T1 construct: expressed in transfected cells; host or cells: HEK293
T1 sequence (Q96LB1 1-330): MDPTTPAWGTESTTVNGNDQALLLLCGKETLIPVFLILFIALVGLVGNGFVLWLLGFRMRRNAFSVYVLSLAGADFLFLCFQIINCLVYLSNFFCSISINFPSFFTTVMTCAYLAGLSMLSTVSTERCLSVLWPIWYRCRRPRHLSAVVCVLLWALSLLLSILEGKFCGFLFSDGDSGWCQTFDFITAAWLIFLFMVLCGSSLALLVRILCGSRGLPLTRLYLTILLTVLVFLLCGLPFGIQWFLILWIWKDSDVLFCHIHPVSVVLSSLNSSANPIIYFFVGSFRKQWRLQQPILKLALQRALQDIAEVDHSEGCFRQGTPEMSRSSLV
Procedure: (§1) The hDRR4 expression plasmid or the hDRR7 expression plasmid was transiently co-transfected with a Gα16-pcDNA3 contruct using the FuGENE 6 reagent (Roche Molecular Biochemicals, Mannheim, Germany) into HEK293 cells. The cells were loaded with Fluo-4 (Molecular Probes, Eugene, Oreg., U.S.A.) according to the recommendations of the supplier. Subsequently the cells were assayed in the FLIPR instrument (Molecular Devices, Sunnyvale, Calif., U.S.A.) for Ca^2+ transients.
as §1, with “The” for “The hDRR4 expression plasmid or the”
(§2) Activation of orphan GPCR hDRR7 (SEQ ID NO:12) by the HDRR binding fragment of EPF (SEQ ID NO: 8) at a test concentration of 150 nM after transient co-transfection with Gα16-pcDNA into HEK293 cells. Relative fluorescence units (RFU) were determined by loading the cells with Fluo-4 (Molecular Probes, Eugene, Oreg., U.S.A.).
as §1, with “construct” for “contruct”, “Fluo4” for “Fluo-4”
(§3) The purified peptides or dried tissue fractions were dissolved in calcium buffer and loaded onto regular multi-well 96 plates. Subsequently the cells were assayed in the FLIPR instrument (Molecular Devices, Sunnyvale, Calif., U.S.A.) for Ca^2+ transients. For the EPF-related peptides the following pEC50 values were determined;

hDRR4 [1] = molecular target: T2, hDRR4 (Homo sapiens, UniProt Q96LB2); assay: FLIPR calcium assay, HEK293 cells transiently co-transfected with hDRR4 and Gα16; format: cell-based; design: The full length reading frame was inserted into the mammalian expression vector pcDNA3; expressed in transfected cells; host or cells: HEK293
T2 sequence (Q96LB2 whole entry): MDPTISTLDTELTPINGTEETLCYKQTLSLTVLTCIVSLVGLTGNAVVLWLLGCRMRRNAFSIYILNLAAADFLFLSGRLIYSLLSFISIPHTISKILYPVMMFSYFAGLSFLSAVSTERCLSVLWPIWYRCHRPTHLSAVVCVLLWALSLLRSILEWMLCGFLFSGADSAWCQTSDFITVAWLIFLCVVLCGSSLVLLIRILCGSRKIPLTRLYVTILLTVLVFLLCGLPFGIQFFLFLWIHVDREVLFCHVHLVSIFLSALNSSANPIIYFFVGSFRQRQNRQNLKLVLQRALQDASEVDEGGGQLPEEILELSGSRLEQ
Procedure: as §1
(§4) Activation of orphan GPCR hDRR4 (SEQ ID NO:2) by the hDRR binding fragment of EPF (SEQ ID NO:8) at a test concentration of 150 nM was measured in Hek293 cells co-transfected with Gα16-pcDNA. Relative fluorescence units (RFU) were determined by loading the cells with Fluo-4 (Molecular Probes, Eugene, Oreg., U.S.A.).
as §1, with “construct” for “contruct”, “Fluo4” for “Fluo-4”
as §3

hDRR4 [2] = molecular target: T2, hDRR4; assay: [3H]Adenine binding to membranes of hDRR4 transfected cells; conditions: tritiated adenine
Procedure: (§5) The membranes were prepared as total particulate fractions. The cell lines were cultured to 90% confluency on 145 mm petri dishes and treated with 5 mM sodium butyrate, 24 hours before collection. The culturing medium was removed and the cells were washed twice with ice-cold phosphate-buffered saline (PBS w/o Ca^2+ and Mg^2+), scraped from the plates in 50 mM Tris-HCl buffer, pH 7.4, and collected by centrifugation (10 minutes at 16,000 RPM at 4° C.). The cell pellet was re-suspended in hypotonic 5 mM Tris-HCl buffer, pH 7.4, and homogenized with an Ultra Turrax homogenizer. The homogenate was centrifuged at 18,000 RPM for 20 minutes at 4° C. The final pellet was re-suspended in 50 mM Tris-HCl buffer, pH 7.4 and stored in aliquots at −70° C. A protein determination was performed using the Bradford protein assay (Biorad) using bovine serum albumin (BSA) as standard.
(§6) [^3H]Adenine binding experiments were performed to characterize transiently transfected cell lines. Membranes were thawed on ice and diluted in 50 mM HEPES buffer, pH 7.4 supplemented with 10 mM MgCl2 and 1 mM EGTA. […] Samples were counted in a β-scintillation counter after at least 6 hours to permit the glass fiber filters to become uniformly translucent. […]
(§7) Specific binding was calculated as difference between counts in the presence and absence of 1 μM unlabeled adenine.

[3] = molecular target: T3, GPCR RC56.3.1 (adenine receptor) (Rattus norvegicus, UniProt Q7TN49); assay: [3H]Adenine binding to RC56.1.3 transfected cells; conditions: tritiated adenine
T3 construct: expressed in transfected cells; host or cells: COS cells (membranes)
T3 sequence (Q7TN49 1-304): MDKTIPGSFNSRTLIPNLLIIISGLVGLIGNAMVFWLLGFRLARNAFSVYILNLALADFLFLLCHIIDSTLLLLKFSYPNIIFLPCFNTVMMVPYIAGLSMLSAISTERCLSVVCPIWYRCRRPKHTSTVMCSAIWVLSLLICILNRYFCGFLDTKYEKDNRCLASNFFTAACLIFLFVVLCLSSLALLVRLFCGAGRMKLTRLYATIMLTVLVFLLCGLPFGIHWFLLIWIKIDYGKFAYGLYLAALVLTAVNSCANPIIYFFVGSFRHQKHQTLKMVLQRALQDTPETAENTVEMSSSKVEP
Procedure: as §5, §6, §7

hDRR4 [4] = molecular target: T2, hDRR4; assay: Stimulation of hDRR4 with angiotensin II and III (re-test of WO 99/32519); conditions: claimed in WO 99/32519; re-examined by present inventors
[5] = tested on: Hek 293 cells only transfected with the Gα16-pcDNA expression vector; assay: FLIPR calcium assay, control cells without receptor; format: cell-based, human; conditions: test concentration 150 nM, no hDRR receptor (FIG. 3, FIG. 4)
Procedure: as §1, §4, §2

[6] = molecular target: T4, human Dorsal Root Receptor 7 (hDRR7) (human, UniProt Q96LB1 1-330); assay: cell-based or functional assay
T4 sequence: T1 sequence (Q96LB1 1-330)

[7] = molecular target: T5, human Dorsal Root Receptor 4 (hDRR4) (human, UniProt Q96LB2 1-322); assay: cell-based or functional assay
T5 sequence (Q96LB2 whole entry): as the sequence (Q96LB2 whole entry) above

[8] = molecular target: T4, human Dorsal Root Receptor 7 (hDRR7); assay: cell-based or functional assay; remark: listed apart in the source
[9] = molecular target: T5, human Dorsal Root Receptor 4 (hDRR4); assay: cell-based or functional assay; remark: listed apart in the source
[10] = MrgX1 = hDRR4, FLIPR Ca2+ transients (FIG. 9), read-out: MrgX1 (pEC50) (converted)

Molecule: Nc1ncnc2nc[nH]c12 [adenine]
Specific adenine binding to hDRR4 (hDRR4 [2]): no specific adenine binding
Specific response on hDRR4 in FLIPR-based cellular assay (hDRR4 [1]; HEK293 with and without co-transfection of chimeric G proteins or Gα16): no specific response
Specific adenine binding to RC56.1.3 transfected cells [3]: clear specific adenine binding

Molecule: angiotensin II (DRVYIHPF; Angiotensin-2; UniProt P01019 25-32, looked up)
Stimulation of hDRR4 by angiotensin (angiotensin receptor characterization) (hDRR4 [4]): could not be confirmed

Molecule: LGQAFRKFLPLFDRVLVE [EPF 1-18, LGQAFRKFLPLFDRVLVE]
EC50 (hDRR7 receptor): 820 nM
EC50 (hDRR4 [1]; [10]): 99.3 nM

Molecule: LGQAFRKFLPLFDRVL [EPF 1-16 (LGQAFRKFLPLFDRVL, SEQ ID NO: 21)]
pEC50, FLIPR Ca2+ transients [6]: 6.06 pEC50
pEC50, FLIPR Ca2+ transients [7]: 7.82 pEC50

Further lines, with some results ahead:

EC50 (hDRR7 receptor): 873 nM
EC50 (hDRR4 [1]; [10]): 15.1 nM
Molecule: LGQAFRKFLPLFDRVL [EPF 1-16, LGQAFRKFLPLFDRVL]

Activation of hDRR7 (relative fluorescence units) (hDRR7 receptor; test concentration 150 nM, Fluo-4 (FIG. 4)): Activation
EC50 (hDRR4 [1]; FLIPR calcium assay, different test concentrations (FIG. 7), read-out: EC50-value on hDRR4 receptor): 10.6 to 12 nM and 12 nM
Activation of hDRR4 (relative fluorescence units) (hDRR4 [1]; test concentration 150 nM, Fluo-4 (FIG. 3)): Activation
Molecule: AFRKFLPLFDRVLVERSA [SEQ ID NO:8, AFRKFLPLFDRVLVERSA]
Response of cells transfected with Gα16 only [5]: did not response

Stimulation of hDRR4 by angiotensin (angiotensin receptor characterization) (hDRR4 [4]): could not be confirmed
Molecule: angiotensin III

pEC50, FLIPR Ca2+ transients [6]: 6.09 pEC50
pEC50, FLIPR Ca2+ transients [7]: 7 pEC50
Molecule: LGQAFRKFLPLFDRVLVE [EPF 1-18 (LGQAFRKFLPLFDRVLVE, SEQ ID NO: 19)]

EC50-value, FLIPR calcium assay [8]: 354 nM
EC50-value [9]: 10.6 nM and 6 to 12 nM
EC50-value, FLIPR calcium assay [9]: 12 nM
Molecule: AFRKFLPLFDRVLVERSA [hDRR binding fragment of EPF (SEQ ID NO:8)]

From patent US20040235722A1, “Epf receptor assays, compounds and therapeutic compositions” (priority 2001, published 2004)
